Data reported in publication PMC6615261, “Repurposing Azithromycin and Rifampicin Against Gram-Negative Pathogens by Combination With Peptidomimetics” (Frontiers in Cellular and Infection Microbiology, 2019).

What was measured:
[1] = tested on: E. coli ST131; assay: Potentiation of additional antibiotics (COMPAN1F plates), MIC; format: cell-based, Escherichia coli; conditions: for MIC of antibiotic in presence of peptidomimetic 26: + 0.25 μM peptidomimetic 26; for MIC of antibiotic in presence of peptidomimetic 1: + 0.5 μM peptidomimetic 1; for MIC of antibiotic in presence of peptidomimetic 15: + 0.5 μM peptidomimetic 15; for MIC of antibiotic alone: no peptidomimetic
Description: (§1) Minimal inhibitory concentrations (MICs) of peptidomimetics, antibiotics and their combinations were determined by broth microdilution according to the Clinical Laboratory Standards Institute performance standards (Clinical and Laboratory Standards Institute, [2013]). […] Since rifampicin and azithromycin mainly are used to treat infections with Gram-positive pathogens only CLSI clinical breakpoints were available for such bacteria. […] Potentiation of additional antibiotics by peptidomimetics was determined by using commercial 96-well plates containing varied concentrations of standard antibiotics (COMPAN1F; Trek Diagnostic Systems Inc.). The peptidomimetics were added immediately prior to inoculation with pathogen, and then MICs were determined as above. The MICs of peptidomimetic/antibiotic combinations were determined according to the method above, and the concentration ratios were selected based upon checkerboard results with 2:1 and 1:4 ratio of peptidomimetic with rifampicin or azithromycin, respectively. Minimal bactericidal concentrations (MBCs) were determined by using growth-curve assay plates. MIC plates were prepared as above, and then the plates were incubated at 37°C with continuous shaking. Growth was recorded at 10 min intervals as optical density (OD) at 600 nm during 24 h. At 24 h, for wells without growth, a sample was diluted 10-fold in sterile saline (0.9% sodium chloride) and plated onto MHA, following CLSI guidelines (Clinical and Laboratory Standards Institute, [1999]).

[2] = tested on: K. pneumoniae ST258; assay: as above; format: cell-based, Klebsiella pneumoniae; conditions: for MIC of antibiotic in presence of peptidomimetic 1: + 1 μM peptidomimetic 1; for MIC of antibiotic in presence of peptidomimetic 15: + 1 μM peptidomimetic 15; for MIC of antibiotic in presence of peptidomimetic 26: + 1 μM peptidomimetic 26; for MIC of antibiotic alone: no peptidomimetic
Description: as §1

| Substance | MIC of antibiotic in presence of peptidomimetic 26 [1] | MIC of antibiotic in presence of peptidomimetic 1 [1] | MIC of antibiotic in presence of peptidomimetic 15 [1] | MIC of antibiotic alone [1] | MIC of antibiotic in presence of peptidomimetic 1 [2] | MIC of antibiotic in presence of peptidomimetic 15 [2] | MIC of antibiotic in presence of peptidomimetic 26 [2] | MIC of antibiotic alone [2] |
| --- | --- | --- | --- | --- | --- | --- | --- | --- |
| Amoxicillin/clavulanic acid [Amoxicillin/clavulanic acid (2:1)] | 8/4 | 8 µg/mL | 8 µg/mL | 16 µg/mL | >32 µg/mL | >32 µg/mL | >32 µg/mL | >32 µg/mL |
| Penicillin | >8 µg/mL | >8 µg/mL | >8 µg/mL | >8 µg/mL | >8 µg/mL | >8 µg/mL | >8 µg/mL | >8 µg/mL |
| Ticarcillin/clavulanic acid [Ticarcillin/clavulanic acid (2:1)] | – | 16 µg/mL | 32 µg/mL | 64 µg/mL | >64 µg/mL | >64 µg/mL | >64 µg/mL | >64 µg/mL |
| Trimethoprim/sulfamethoxazole | >38 µg/mL | >38 µg/mL | >38 µg/mL | >38 µg/mL | >38 µg/mL | >38 µg/mL | >38 µg/mL | >38 µg/mL |
